Measurements published in PubChem BioAssay (NCI).
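Test compounds were applied to cells in 96-well plates for 48 hours at 5 doses. GI50 marks 50% less growth. Definition used: TGI = concentration required for complete inhibition of growth.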

Columns and labels:
Assay in all cases: NCI tumour cell line growth inhibition, 48 h
SK-MEL-2 melanoma = tested on: SK-MEL-2 melanoma
SK-MEL-28 melanoma = tested on: SK-MEL-28 melanoma
NCI-H522 lung = tested on: NCI-H522 lung
ACHN renal = tested on: ACHN renal
NCI-H226 lung = tested on: NCI-H226 lung
MDA-MB-231 breast = tested on: MDA-MB-231 breast
UACC-62 melanoma = tested on: UACC-62 melanoma
UACC-257 melanoma = tested on: UACC-257 melanoma
SR leukemia = tested on: SR leukemia
COLO 205 colon = tested on: COLO 205 colon

Row | Structure (SMILES) | GI50 (SK-MEL-2 melanoma) [µM] | TGI (SK-MEL-2 melanoma) [µM] | GI50 (SK-MEL-28 melanoma) [µM] | TGI (SK-MEL-28 melanoma) [µM] | GI50 (NCI-H522 lung) [µM] | TGI (NCI-H522 lung) [µM] | GI50 (ACHN renal) [µM] | TGI (ACHN renal) [µM] | GI50 (NCI-H226 lung) [µM] | TGI (NCI-H226 lung) [µM] | GI50 (MDA-MB-231 breast) [µM] | TGI (MDA-MB-231 breast) [µM] | GI50 (UACC-62 melanoma) [µM] | TGI (UACC-62 melanoma) [µM] | GI50 (UACC-257 melanoma) [µM] | TGI (UACC-257 melanoma) [µM] | GI50 (SR leukemia) [µM] | TGI (SR leukemia) [µM] | GI50 (COLO 205 colon) [µM] | TGI (COLO 205 colon) [µM]
1 | COc1ccc2c(c1)/C(=N/OC(C)=O)c1c-2c(Nc2ccc(/C(C)=N/OC(C)=O)cc2)nc2ccccc12 | 83.1 | > 100 | 44.5 | > 100 | 73.4 | > 100 | 56.6 | > 100 | > 100 | > 100 | > 100 | > 100 | 25.5 | 63.8 | > 100 | > 100 | 87.6 | > 100 | > 100 | > 100
2 | Clc1ccc2c(NCCNc3nc(Cl)nc4ccccc34)ccnc2c1 | 1.87 | 3.52 | 1.78 | 3.4 | 1.3 | 2.76 | 1.61 | 3 | 1.82 | 3.53 | 0.36 | 1.21 | 1.81 | 3.49 | 1.89 | 3.54 | 0.268 | 0.866 | 0.863 | 2.32
3 | O=C(CN1CCN(c2cc3c(cc2F)c(=O)c(C(=O)O)cn3C2CC2)CC1)Nc1ccc(C(=O)/C=C/c2ccccc2)cc1 | 2.94 | 11.3 | 18.8 | > 100 | 1.7 | 7.78 | 3.3 | 31.9 | 6.83 | > 100 | 1.84 | 5.13 | 3.71 | > 100 | 3.9 | 90.8 | 1.54 | 6.1 | 36.3 | > 100
4 | CC[C@@]1(O)C(=O)N(CCN(C)C)Cc2c1cc1n(c2=O)Cc2cc3ccccc3nc2-1 | > 100 | > 100 | 34.7 | > 92.8 | 7.05 | > 89 | 4.31 | > 100 | 64.3 | > 100 | > 100 | > 100 | 7.2 | > 100 | > 100 | > 100 | 6.24 | > 100 | > 91.6 | > 100
5 | Nc1ccc(Sc2ccc3c4c2cccc4c(=O)n2c4ccccc4nc32)cc1 | 8.87 | 65.6 | 12.8 | 35.3 | 3.99 | 36.8 | 2.37 | 10.2 | 2.43 | 11.3 | 5.31 | 30 | 2.48 | 16.1 | 11.8 | 43.5 | 1.6 | 33.1 | 7.24 | 27.2
6 | CCOC(=O)Nc1ccc2nc(Sc3ccc(Cl)cc3)sc2c1 | 2.56 | 26.4 | 13.5 | > 100 | 2.47 | 35.2 | 11.5 | > 90.4 | 7.9 | 76.3 | 4.47 | 34 | 1.6 | 48.3 | 9.87 | 45.2 | 0.358 | > 32.9 | 1.45 | 19
7 | N#CSc1cc(-c2nc3ccccc3o2)ccc1N | 40.7 | > 74.3 | 29.6 | > 100 | > 40.9 | > 64.6 | 19.2 | 58.5 | 5.23 | 37.8 | > 100 | > 100 | 13.6 | 30.8 | 1.77 | 26.4 | 0.203 | > 100 | 40.5 | > 100
8 | Cc1cncc2cccc(S(=O)(=O)N3CCCNC[C@@H]3C)c12 | 61 | > 100 | > 100 | > 100 | > 23.1 | > 100 | 14.2 | > 100 | 2 | 46.1 | 14.1 | 74.2 | > 47 | > 100 | > 100 | > 100 | 3.55 | > 91.2 | 2.85 | 18.8
9 | c1ccc(-c2nn(-c3ccccc3)[n+](-c3ccccc3-c3ccccc3)n2)cc1 | 1.8 | 7.69 | 2.3 | 27.2 | 0.478 | 8.18 | 5.38 | > 100 | 2.83 | > 100 | 0.235 | 9.21 | 0.74 | 14.9 | 0.339 | 2.72 | 1.22 | 10.9 | 0.205 | 0.856
10 | C=C(C)[C@@H]1CC[C@@H]2C(=CC[C@]3(C)C([C@H](C)CC/C=C(/C)C(=O)O)CC[C@@]23C)[C@@]1(C)CCC(=O)O (stereo not given in full) |  | 45.1 |  | 98.9 |  | 91.6 |  | 36.7 |  | 83.1 |  | 60.2 |  | 39.4 |  | 54.2 |  | 49.4 |  | 39.9
11 | COc1cc(C2CC(c3cc(Cl)c(C)cc3O)=NN2c2ccc(S(N)(=O)=O)cc2)cc(OC)c1OC (stereo not given) | 3.53 | 12 | 3 | 7.86 | 2.45 | 6.73 | 2.78 | 8.33 | 3.73 | 13.3 | 2.09 | 5.01 | 2.47 | 8.5 | 4.13 | 15.2 | 2.47 | 7.35 | 1.72 | 3.09
